Measured values taken from patent publication US7060733B2, “Methods for treating pancreatitis with curcumin compounds and inhibitors of reactive oxygen species” (The Regents of the University of California, priority 2002, dated 2006).

Columns and labels:
NF-κB and AP-1 = details: antioxidant; cited from earlier work
NF-κB = assay: Curcumin and N-acetylcysteine alone and in combination, NF-κB activation in CCK-stimulated acinar cells; format: cell-based, rat; details: 0.1 μM CCK
Description: To measure the effects of curcumin compounds and ROS inhibitors, EMSAs and nuclear protein extractions were conducted as provided above. […] EMSAs for NF-κB activation were performed on nuclear proteins extracted from each sample.

Row | Compound | NF-κB activation (NF-κB and AP-1) | inhibition of NF-κB activation in CCK-stimulated acinar cells (NF-κB; N-acetylcysteine 10 μM alone) | inhibition of NF-κB activation in CCK-stimulated acinar cells (NF-κB; curcumin 50 μM with N-acetylcysteine 10 μM)
1 | CC(=O)N[C@@H](CS)C(=O)O [N-acetylcysteine, reference compound] | inhibit | very little inhibition | 
2 | curcumin and N-acetylcysteine |  |  | synergistic effect
